For test [1], the system named is Staphylococcus aureus. The experiment in a line: Antibacterial activity of compound to inhibit the growth of Staphylococcus aureus 8325. It counts as functional.
Test [2] has as its system Bacteria. As to the kind of experiment: Antibacterial activity of compound to inhibit the growth of Gram-positive bacteria. Format: functional.
Test [3] has as its system Enterococcus faecium. As to the kind of experiment: Antibacterial activity against Enterococcus faecium F24910. Format: functional.
For test [4], the system named is Enterococcus faecium. As to the kind of experiment: Antibacterial activity against E. species. T66429. It counts as functional.
A further test deals with Escherichia coli. As to the kind of experiment: Antibacterial activity against Escherichia coli H28233. Format: functional, organism-based.
Test [5] has as its system Streptococcus sp. 'group A'. The experiment in a line: Antibacterial activity against Grp A Strep T32098. It counts as functional.
For test [6], the system named is Pseudomonas aeruginosa. As to the kind of experiment: Antibacterial activity against Pseudomonas aeruginosa W30279. Format: functional, organism-based.
In test [7] the test system is Pseudomonas aeruginosa. As to the kind of experiment: Antibacterial activity against Pseudomonas aeruginosa W30298. It counts as functional, organism-based.
The test system of test [8] is Staphylococcus aureus. As to the kind of experiment: Antibacterial activity against Staphylococcus aureus W30078c. It counts as functional.
For test [9], the system named is Staphylococcus aureus. The experiment in a line: Antibacterial activity against Staphylococcus aureus F2490. It counts as functional.
For test [10], the system named is Streptococcus sp. 'group A'. The experiment in a line: Antibacterial activity against Grp A Strep S54408. It counts as functional.
The test system of test [11] is Staphylococcus aureus. As to the kind of experiment: Antibacterial activity against Staphylococcus aureus 8325. It counts as functional.
For test [12], the system named is Bacteria. As to the kind of experiment: Antibacterial activity of compound to inhibit the growth of Gram-positive bacteria; Range is 5-11 ug/mL. It counts as functional.
Test [13] deals with Bacteria. As to the kind of experiment: Antibacterial activity of compound to inhibit the growth of Gram-positive bacteria; Range is 8-12 ug/mL. Format: functional.

Values after ≈ are worked out from the molar mass of the structure shown. Active and inactive are the calls of the source. No cut-off for these calls is given here. Where only a bound is given, the exact number is not on record here.

In general, IC90 refers to the concentration needed for an effect of 90%. Higher therefore signals weaker potency. For `Cc1cc(C(=O)N[C@@H](CC2CCCCC2)C(=O)O)ccc1-c1ccc(-c2ccccc2)cc1`, the 90% effect level with Staphylococcus aureus [1] (IC90) was put at 2 µg/mL (≈ 4.53 µM).
As for `O=C(O)c1ccc(Cl)c(-c2ccc(Cl)cc2)c1`, the IC90 in the test with Bacteria [2] is > 50 µg/mL.
By MIC is commonly meant the lowest concentration that inhibits growth of the organism. Take `O=C(N[C@@H](CC1CCCCC1)C(=O)O)c1cccc(-c2ccc(-c3ccccc3)cc2)c1`: the MIC stood at 20 µg/mL (≈ 46.8 µM) with Enterococcus faecium [3]; 20 µg/mL (≈ 46.8 µM) in the test with Enterococcus faecium [4]; 20 µg/mL (≈ 46.8 µM) in [5]; 20 µg/mL (≈ 46.8 µM) against Staphylococcus aureus [8]; 20 µg/mL (≈ 46.8 µM) against Staphylococcus aureus [9]; 10 µg/mL (≈ 23.4 µM) in test [10]. In the test on Staphylococcus aureus [11], this compound gave an MIC of 20 µg/mL (≈ 46.8 µM). Also, the MIC result with Escherichia coli, in the test on Pseudomonas aeruginosa [6] and in the test with Pseudomonas aeruginosa [7] was “inactive” throughout. In the test with Staphylococcus aureus [1], it took 4 µg/mL (≈ 9.36 µM) to reach the 90% level (IC90).
In turn, `O=C(N[C@@H](CC1CCCC1)C(=O)O)c1ccc(Cl)c(-c2ccc(Cl)cc2)c1` gave an IC90 in the test on Bacteria [2] of 18 µg/mL (≈ 44.3 µM).
For `NC(=O)c1ccc(Cl)c(-c2ccc(Cl)cc2)c1`, in the test on Bacteria [2], the IC90 was > 50 µg/mL.
With `O=C(N[C@@H](CC1CCNCC1)C(=O)O)c1ccc(Cl)c(-c2ccc(Cl)cc2)c1`, in the test on Bacteria [2], the IC90 is > 50 µg/mL.
For `O=C(N[C@@H](CC1CCCCC1)C(=O)O)c1ccc(Cl)c(-c2cccc(Cl)c2)c1`, the MIC in the test with Enterococcus faecium [3] came to 20 µg/mL (≈ 47.6 µM); against Enterococcus faecium [4], 20 µg/mL (≈ 47.6 µM); in test [5] it was 20 µg/mL (≈ 47.6 µM); with Staphylococcus aureus [8], 20 µg/mL (≈ 47.6 µM); against Staphylococcus aureus [9], 15 µg/mL (≈ 35.7 µM); in test [10], 10 µg/mL (≈ 23.8 µM). In the test on Staphylococcus aureus [11], this compound showed an MIC of 15 µg/mL (≈ 35.7 µM). Moreover, the MIC entry with Escherichia coli, with Pseudomonas aeruginosa [6] and with Pseudomonas aeruginosa [7] was “inactive” each time. It took 8 µg/mL (≈ 19 µM) to reach the 90% level with Staphylococcus aureus [1] (IC90).
Regarding `O=C(N[C@@H](Cc1ccccc1)C(=O)O)c1ccc(Cl)c(-c2ccc(Cl)cc2)c1`, the IC90 in the test on Bacteria [2] was > 50 µg/mL.
`O=C(NC(C(=O)O)c1ccccc1)c1ccc(Cl)c(-c2ccc(-c3ccccc3)cc2)c1` (configuration not stated): in the test on Bacteria [2], it took 10 µg/mL (≈ 22.6 µM) to reach the 90% level (IC90).
Consider `O=C(N[C@@H](CC1CCCCC1)C(=O)O)c1ccc(Cl)c(-c2ccc(Cl)cc2)c1`, for which the MIC is > 20 µg/mL against Enterococcus faecium [3]; 20 µg/mL (≈ 47.6 µM) against Enterococcus faecium [4]; 20 µg/mL (≈ 47.6 µM) in test [5]; 20 µg/mL (≈ 47.6 µM) against Staphylococcus aureus [8]; 20 µg/mL (≈ 47.6 µM) with Staphylococcus aureus [9]; 10 µg/mL (≈ 23.8 µM) in [10]. In the test on Staphylococcus aureus [11], this compound yielded an MIC of 20 µg/mL (≈ 47.6 µM). For the same compound, the MIC entry in the test with Escherichia coli, in the test on Pseudomonas aeruginosa [6] and with Pseudomonas aeruginosa [7] was “inactive” in each case. It took 10 µg/mL (≈ 23.8 µM) to reach the 90% level in the test with Staphylococcus aureus [1] (IC90).
Compound `Cc1ccc(C(=O)N[C@@H](CC2CCCCC2)C(=O)O)cc1-c1ccc(-c2ccccc2)cc1` had an IC90 in the test with Staphylococcus aureus [1] of 3 µg/mL (≈ 6.79 µM).
Turning to `O=C(N[C@H](CC1CCCCC1)C(=O)O)c1ccc(Cl)c(-c2ccc(Cl)cc2)c1`, the IC90 with Bacteria [12] turned out to be 11 µg/mL (≈ 26.2 µM).
As for `C[C@H](NC(=O)c1ccc(Cl)c(-c2ccc(Cl)cc2)c1)C(=O)O`, the IC90 with Bacteria [2] was > 50 µg/mL.
Regarding `O=C(O)[C@@H]1CCCCN1C(=O)c1ccc(Cl)c(-c2ccc(-c3ccccc3)cc2)c1`, the IC90 in the test with Bacteria [2] stood at 25 µg/mL (≈ 59.5 µM).
Same read-out and setting: the figure for `NC(=O)c1ccc(Cl)c(-c2ccc(-c3ccccc3)cc2)c1` is > 50 µg/mL.
Same read-out and setting: the figure for `COC(=O)[C@H](CC1CCCCC1)NC(=O)c1ccc(Cl)c(-c2ccc(Cl)cc2)c1` is > 50 µg/mL.
As for `NC(=O)[C@H](CC1CCCCC1)NC(=O)c1ccc(Cl)c(-c2ccc(Cl)cc2)c1`, the IC90 with Bacteria [13] is 12 µg/mL (≈ 28.6 µM).
